According to US11345713B2, “Compounds as modulators of TLR2 signaling” (Neuropore Therapies, inc., priority 2018, dated 2022):
Counter-ions that a name gives are not always drawn.

Key:
[1] = target: T1, human TLR2 (Pam2CSK4, TLR2/6 agonist) in HEK-Blue hTLR2 cells (Homo sapiens, UniProt O60603); assay: HEK-Blue hTLR2 antagonism assay (SEAP reporter) with Pam2CSK4 as agonist; type: cell-based; conditions: 2 h compound pre-incubation, approx. 3×EC50 Pam2CSK4, 18 h, SEAP OD 655 nm, background subtracted
T1 construct: host or cells: HEK-Blue hTLR2 (HEK-293)
Description: (§1) Synthetic diacylated lipoprotein (Pam2CSK4, TLR2/6 agonist) and synthetic triacylated lipoprotein (Pam3CSK4, TLR1/2 agonist) were obtained from InvivoGen and were dissolved in endotoxin-free water to a concentration 1 mg/mL, vortexed until complete solubilization, and stored in aliquots at −20° C. Prior to addition to cells, an aliquot of the dissolved ligand was vortexed shortly and then was diluted in medium to 25 ng/mL Pam2CSK4 or 1000 ng/mL Pam3CSK4. The EC50 of the agonists for each assay run was determined by using 3-fold dilutions of each agonist from the following starting concentrations: 5 ng/mL for Pam2CSK4, and 200 ng/mL for Pam3CSK4.
(§2) Test compounds were solubilized fresh to 10-20 mM stocks in DMSO and sonicated for 5-10 minutes in a water bath sonicator. Serial dilutions were prepared in DMSO, and then diluted in medium. The final concentration of DMSO used in the assay was 1%.
(§3) HEK-Blue hTLR2 reporter cells (InvivoGen) are HEK-293 cells stably expressing both the human TLR2 gene and a secreted embryonic alkaline phosphatase (SEAP) reporter construct downstream of NFκB promotor sites. HEK-Blue hTLR2 reporters were cultured according to manufacturer's protocol using Dulbecco's Modified Eagle Medium (DMEM; Gibco) containing 1× GlutaMax (Gibco), 10% heat-inactivated Fetal Bovine Serum (Gibco), Pen-Strep (50 U/mL penicillin, 50 μg/mL streptomycin, Gibco), 100 μg/mL Normocin (InvivoGen), and the selective antibiotic, 1× HEK-Blue Selection (InvivoGen). Quanti-Blue reagent (InvivoGen) for detection and quantification of secreted alkaline phosphatase was dissolved in 100 mL of endotoxin-free water, warmed to 37° C. for 30 minutes and then filtered using a 0.2 μm membrane.
(§4) On day 1, 50 μL of each test compound dilution in duplicates or a vehicle control was added to each well of a 96-well plate followed by addition of 150 μL of HEK-Blue hTLR2 cell suspension (1×10^5 cells/well) and incubated at 37° C./5% CO2 for 2 h. Next, 50 μL of an approximate 3×EC50 concentration of each agonist (Pam2CSK4 or Pam3CSK4) was added to the wells containing test compounds or the vehicle control. The plates were then incubated at 37° C./5% CO2 for 18 h. For each assay run, non-treated HEK-Blue hTLR2 cells were treated with serial dilutions of agonists to determine EC50 values for the respective run.
(§5) On day 2, secreted alkaline phosphatase (SEAP) activity was detected in cell culture supernatants. In brief, 20 μL was collected from each well and transferred to a 96-well plate. Next, 200 μL of Quanti-Blue detection reagent was added to each well. Plates were incubated at room temperature for 15 min and SEAP activity was assessed by spectrophotometer OD reading at 655 nm. […] The activities of the compounds against Pam2CSK4 and Pam3CSK4 are presented as IC50 values for the response from cells treated with agonists with the background signal subtracted.

[2] = target: T2, human TLR2 (Pam3CSK4, TLR1/2 agonist) in HEK-Blue hTLR2 cells (Homo sapiens, UniProt O60603); assay: HEK-Blue hTLR2 antagonism assay (SEAP reporter) with Pam3CSK4 as agonist; type: cell-based; conditions: 2 h compound pre-incubation, approx. 3×EC50 Pam3CSK4, 18 h, SEAP OD 655 nm, background subtracted
T2 construct: host or cells: HEK-Blue hTLR2 (HEK-293)
Description: as §1, §2, §3, §4, §5

T2 sequence (O60603 19-784 limits assumed): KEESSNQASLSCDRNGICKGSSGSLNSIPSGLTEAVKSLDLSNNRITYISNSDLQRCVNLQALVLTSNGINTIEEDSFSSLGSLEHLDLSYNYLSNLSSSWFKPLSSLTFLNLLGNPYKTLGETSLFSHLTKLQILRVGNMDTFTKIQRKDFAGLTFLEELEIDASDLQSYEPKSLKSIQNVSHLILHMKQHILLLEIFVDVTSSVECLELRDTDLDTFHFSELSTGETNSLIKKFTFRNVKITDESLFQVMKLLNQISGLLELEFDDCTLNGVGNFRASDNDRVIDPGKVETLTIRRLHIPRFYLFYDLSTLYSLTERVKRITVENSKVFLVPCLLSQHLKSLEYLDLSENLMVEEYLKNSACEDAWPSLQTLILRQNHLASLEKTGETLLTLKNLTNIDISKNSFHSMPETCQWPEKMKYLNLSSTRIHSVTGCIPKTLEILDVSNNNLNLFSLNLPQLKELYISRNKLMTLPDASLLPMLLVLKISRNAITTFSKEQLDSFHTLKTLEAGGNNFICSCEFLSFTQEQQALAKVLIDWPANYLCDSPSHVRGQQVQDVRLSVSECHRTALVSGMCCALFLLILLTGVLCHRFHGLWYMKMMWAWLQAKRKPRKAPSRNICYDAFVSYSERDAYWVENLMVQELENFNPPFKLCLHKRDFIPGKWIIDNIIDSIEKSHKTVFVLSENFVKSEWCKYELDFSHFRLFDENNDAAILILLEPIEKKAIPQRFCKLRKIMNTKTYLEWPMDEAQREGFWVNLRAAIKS
T1 sequence (O60603 19-784 limits assumed): as above

Compound	IC50 [1] [µM]	IC50 [2] [µM]
O=Cc1cc(/C=C/c2ccc(N3CCCC3)cc2)cc(F)c1O [Example 49a, (E)-3-fluoro-2-hydroxy-5-(4-(pyrrolidin-1-yl)styryl)benzaldehyde]	0.5	0.6
O=Cc1cc(/C=C/c2ccc(N3CCCC3)cc2)cc(F)c1O [Example 49b, (E)-3-fluoro-2-hydroxy-5-(4-(pyrrolidin-1-yl)styryl)benzaldehyde]	0.8	0.8
COc1ccc(/C=C/c2cc(C=O)c(O)c(OC)c2)cc1 [compound 1, (E)-2-hydroxy-3-methoxy-5-(4-methoxystyryl)benzaldehyde]	3.2	1.7
COc1cc(/C=C/c2cccc(C(F)(F)F)c2)cc(C=O)c1O [compound 2, (E)-2-hydroxy-3-methoxy-5-(3-(trifluoromethyl)styryl)benzaldehyde]	5.3	1.4
COc1cc(C=Cc2ccc(Cl)cc2)cc(C=O)c1O [compound 3, 5-(4-chlorostyryl)-2-hydroxy-3-methoxybenzaldehyde]	4.8	3.1
COc1cc(/C=C/c2ccccc2)cc(C=O)c1O [compound 4, (E)-2-hydroxy-3-methoxy-5-styrylbenzaldehyde]	5.5	4
COc1cc(/C=C/c2cc(F)cc(F)c2)cc(C=O)c1O [compound 5, (E)-5-(3,5-difluorostyryl)-2-hydroxy-3-methoxybenzaldehyde]	4	3.2
COc1cc(/C=C/c2ccc(F)cc2F)cc(C=O)c1O [compound 6, (E)-5-(2,4-difluorostyryl)-2-hydroxy-3-methoxybenzaldehyde]	2.5	2.3
COc1cc(/C=C/c2ccc(F)cc2)cc(C=O)c1O [compound 7, (E)-5-(4-fluorostyryl)-2-hydroxy-3-methoxybenzaldehyde]	7.9	6.2
COc1cc(/C=C/c2ccc(C(F)(F)F)cc2)cc(C=O)c1O [compound 8, (E)-2-hydroxy-3-methoxy-5-(4-(trifluoromethyl)styryl)benzaldehyde]	6.3	5.5
COc1ccc(/C=C/c2cc(OC)c(O)c(C(C)=O)c2)cc1 [compound 9, (E)-1-(2-hydroxy-3-methoxy-5-(4-methoxystyryl)phenyl)ethan-1-one]	> 100	> 100
COc1ccc(/C=C/c2cc(F)c(O)c(C=O)c2)cc1 [compound 10, (E)-3-fluoro-2-hydroxy-5-(4-methoxystyryl)benzaldehyde]	4.6	3.8
O=Cc1cc(/C=C/c2cccc(C(F)(F)F)c2)cc(F)c1O [compound 11, (E)-3-fluoro-2-hydroxy-5-(3-(trifluoromethyl)styryl)benzaldehyde]	1.1	1
COc1cc(-c2cc3c(s2)CCN(C(=O)OC(C)(C)C)C3)cc(C=O)c1O [compound 12, tert-butyl 2-(3-formyl-4-hydroxy-5-methoxyphenyl)-6,7-dihydrothieno[3,2-c]pyridine-5(4H)-carboxylate]	1.4	1.3
COc1cc(-c2cc3c(s2)CCNC3)cc(C=O)c1O [compound 13, 2-hydroxy-3-methoxy-5-(4,5,6,7-tetrahydrothieno[3,2-c]pyridin-2-yl)benzaldehyde hydrochloride]	4.5	3.8
COc1cc(-c2cc3c(s2)CCN(C(=O)C2CC2)C3)cc(C=O)c1O [compound 14, 5-(5-(cyclopropanecarbonyl)-4,5,6,7-tetrahydrothieno[3,2-c]pyridin-2-yl)-2-hydroxy-3-methoxybenzaldehyde]	5.7	4.2
COc1cc(-c2cc3c(s2)CCN(C(C)=O)C3)cc(C=O)c1O [compound 15, 5-(5-acetyl-4,5,6,7-tetrahydrothieno[3,2-c]pyridin-2-yl)-2-hydroxy-3-methoxybenzaldehyde]	14.7	12.6

Compound	IC50 [1] [µM]	IC50 [2] [µM]
COc1cc(-c2cc3c(s2)CCN(CCF)C3)cc(C=O)c1O [compound 16, 5-(5-(2-fluoroethyl)-4,5,6,7-tetrahydrothieno[3,2-c]pyridin-2-yl)-2-hydroxy-3-methoxybenzaldehyde]	5.9	6.9
COc1cc(-c2cc3c(s2)CCN(CC2CC2)C3)cc(C=O)c1O [compound 17, 5-(5-(cyclopropylmethyl)-4,5,6,7-tetrahydrothieno[3,2-c]pyridin-2-yl)-2-hydroxy-3-methoxybenzaldehyde]	2	2.1
CN1CCc2sc(-c3cc(F)c(O)c(C=O)c3)cc2C1 [compound 18, 3-fluoro-2-hydroxy-5-(5-methyl-4,5,6,7-tetrahydrothieno[3,2-c]pyridin-2-yl)benzaldehyde]	10.4	12.2
CC(=O)N1CCc2sc(-c3cc(F)c(O)c(C=O)c3)cc2C1 [compound 19, 5-(5-acetyl-4,5,6,7-tetrahydrothieno[3,2-c]pyridin-2-yl)-3-fluoro-2-hydroxybenzaldehyde]	26.7	38.1
COc1cc(-c2cc3c(s2)CCN(C(C)C)C3)cc(C=O)c1O [compound 20, 2-hydroxy-5-(5-isopropyl-4,5,6,7-tetrahydrothieno[3,2-c]pyridin-2-yl)-3-methoxybenzaldehyde]	11.2	10
Cc1ccc(/C=C/c2ccc(O)c(C=O)c2)cn1 [compound 21, (E)-2-hydroxy-5-(2-(6-methylpyridin-3-yl)vinyl)benzaldehyde]	40	57.3
COc1ccc(/C=C/c2cc(C=O)c(O)cc2F)cc1 [compound 22, (E)-4-fluoro-2-hydroxy-5-(4-methoxystyryl)benzaldehyde]	17.8	6.3
COc1cc(/C=C/c2ccccn2)cc(C=O)c1O [compound 23, (E)-2-hydroxy-3-methoxy-5-(2-(pyridin-2-yl)vinyl)benzaldehyde]	11.8	11.5
O=Cc1cc(/C=C/c2ccccn2)ccc1O [compound 24, (E)-2-hydroxy-5-(2-(pyridin-2-yl)vinyl)benzaldehyde]	> 100	> 100
COc1cc(/C=C/c2ccncc2)cc(C=O)c1O [compound 25, (E)-2-hydroxy-3-methoxy-5-(2-(pyridin-4-yl)vinyl)benzaldehyde]	15.2	16.4
COc1cc(/C=C/c2ccc(C)nc2)cc(C=O)c1O [compound 26, (E)-2-hydroxy-3-methoxy-5-(2-(6-methylpyridin-3-yl)vinyl)benzaldehyde]	7.4	9.3
COc1cc(/C=C/C2CCN(C(=O)OC(C)(C)C)CC2)cc(C=O)c1O [compound 27, tert-butyl (E)-4-(3-formyl-4-hydroxy-5-methoxystyryl)piperidine-1-carboxylate]	4.4	7.7
O=Cc1cc(/C=C/c2ccccn2)cc(F)c1O [compound 28, (E)-3-fluoro-2-hydroxy-5-(2-(pyridin-2-yl)vinyl)benzaldehyde]	19.5	29.4
Cc1ccc(/C=C/c2cc(F)c(O)c(C=O)c2)cn1 [compound 29, (E)-3-fluoro-2-hydroxy-5-(2-(6-methylpyridin-3-yl)vinyl)benzaldehyde]	9.1	10
O=Cc1cc(/C=C/c2ccncc2)cc(F)c1O [compound 30, (E)-3-fluoro-2-hydroxy-5-(2-(pyridin-4-yl)vinyl)benzaldehyde]	20.6	18.8
CC(C)(C)OC(=O)N1CCC(/C=C/c2cc(F)c(O)c(C=O)c2)CC1 [compound 31, tert-butyl (E)-4-(3-fluoro-5-formyl-4-hydroxystyryl)piperidine-1-carboxylate]	3.8	6
